# From the supplement of paper PMC10949913
# How the values were obtained:
# Assay in all cases: area under concentration-response curve (viability) (AUC (a.u.)); higher = less active
# Details in all cases: 48 h
# CU-ACC1 = test system: CU-ACC1
# How it was run: (§1)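 Three adrenocortical carcinoma cell lines were plated in 1,536-well plates at 500–1,000 cells/well in 5 µL medium, and 23 nL of each library compound was added at 11 concentrations. After 48 h, CellTiter-Glo was applied for 15 minutes at room temperature before luminescence was read. Each plate's signals were normalised to vehicle and empty-well controls. AC50 and area under the curve were taken from fitted concentration-response curves, with only inhibitory or non-responding curve classes retained.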
# CU-ACC2 = test system: CU-ACC2
# How it was run: as §1
# NCI-H295R = test system: NCI-H295R
# How it was run: as §1
SMILES,area under concentration-response curve (CU-ACC1),area under concentration-response curve (CU-ACC2),area under concentration-response curve (NCI-H295R)
CCOC(=O)c1c(/C(C#N)=C\N)c2ccc(Cl)c(Cl)c2n1C,510,478,517
CC(C)(Sc1cc(C(C)(C)C)c(O)c(C(C)(C)C)c1)Sc1cc(C(C)(C)C)c(O)c(C(C)(C)C)c1,550,652,601
COc1ccc(/C=C/C(=O)Nc2ccccc2C(=O)O)cc1OC,439,517,496
CC(C)(C)[S+](=O)([O-])c1ccc2nccc(Nc3n[nH]c4ccc(F)cc34)c2c1,526,627,561
COc1cc(CNC(=O)CCCC/C=C/C(C)C)ccc1O,542,653,599
CCC1=C(C)CN(C(=O)NCCc2ccc(S(=O)(=O)NC(=O)N[C@H]3CC[C@H](C)CC3)cc2)C1=O,508,600,559
COc1cc(OC)c(C(=O)CCCN2CCCC2)c(OC)c1,440,500,465
CC(C(=O)O)c1ccc2c(c1)CC(=O)c1ccccc1S2 (stereo unspecified),535,554,497
Cc1cc(C)cc(Oc2ccc(CNC(=O)[C@H](C)N)cc2C)c1,478,559,509
CN(C)CCc1c[nH]c2ccc(C[S+](=O)([O-])N3CCCC3)cc12,490,612,513
CN1C(=O)N(c2cc(Cl)cc(Cl)c2)C(=O)[C@]12CN(Cc1cc(C(=O)O)cs1)C[C@H]2c1ccc(C#N)cc1,401,420,404
CC(C)C[C@H](NC(=O)[C@@H](O)[C@H](N)Cc1ccccc1)C(=O)O,459,571,494
CO[C@H]1C[C@@H]2CC[C@@H](C)[C@@](O)(O2)C(=O)C(=O)N2CCCC[C@H]2C(=O)O[C@H]([C@H](C)C[C@@H]2CC[C@@H](OC(=O)C(C)(CO)CO)[C@H](OC)C2)CC(=O)[C@H](C)/C=C(\C)[C@@H](O)[C@@H](OC)C(=O)[C@H](C)C[C@H](C)/C=C/C=C/C=C/1C,488,483,530
CCCc1nc(C(C)(C)O)c(C(=O)O)n1Cc1ccc(-c2ccccc2-c2nn[nH]n2)cc1,436,521,462
Cc1ccc([S+](=O)([O-])N[C@@H](Cc2ccccc2)C(=O)CCl)cc1,530,628,584
O=C([C@@H](Cc1cccc(C(F)(F)F)c1)N[S+](=O)([O-])c1cc(F)c2c(c1)CCNC2)N1CCCC1,528,515,535
CCn1nc(C2CCN(C(=O)CCO)CC2)nc1-c1cnc(N)c(-c2nnc(C(C)(C)C)o2)n1,387,504,507
Cn1c(COP(=O)(NCCBr)NCCBr)cnc1[N+](=O)[O-],394,575,514
CC1COC2=C3N1\C=C(C(O)=O)/C(=O)C3=CC(=C2N4CCN(C)CC4)F (stereo unspecified),474,537,517
Cc1ccnc(N[S+](=O)([O-])c2ccc(NC(=O)Nc3ccc([S+](=O)([O-])Nc4nccc(C)n4)cc3)cc2)n1,499,566,537
C[C@]12CCC3[C@@H](CC[C@H]4NC(=O)\C=C/[C@]34C)[C@@H]1CC[C@@H]2C(=O)NC5=CC(=CC=C5C(F)(F)F)C(F)(F)F (stereo partly specified),557,645,578
NCCCC(N)(C(=O)O)C(F)F (stereo unspecified),443,514,491
